The values that follow come from PubChem BioAssay AID1259407 (Chemical Carcinogenesis Research Information System (CCRIS), 2018).

The test system of this data set is CCRIS mutagenicity, Ames/micronucleus/aberration tests. Kind of data set: CCRIS mutagenicity studies.
Where [1] appears, read: Test System: AMES SALMONELLA TYPHIMURIUM, Strain/Indicator: TA98, Metabolic Activation: NONE, Method: STANDARD PLATE.
[2] abbreviates: Test System: AMES SALMONELLA TYPHIMURIUM, Strain/Indicator: TA98, Metabolic Activation: RAT, LIVER, S-9, AROCLOR 1254, Method: STANDARD PLATE.
[3] abbreviates: Test System: AMES SALMONELLA TYPHIMURIUM, Strain/Indicator: TA100, Metabolic Activation: NONE, Method: STANDARD PLATE.
The mark [4] stands for this setting: Test System: AMES SALMONELLA TYPHIMURIUM, Strain/Indicator: TA100, Metabolic Activation: RAT, LIVER, S-9, AROCLOR 1254, Method: STANDARD PLATE.

Active and inactive are the calls of the source. No rule for the calls is given here.

As for `CC(=NC#N)N(C)Cc1ccc(Cl)nc1`, the mutagenic call reads like this: (End Point: In vitro chromosomal aberrations, Test System: Human peripheral lymphocytes, Metabolic Activation: None) “active; positive (structural changes), 20% purity (commercial product mosetam 20 sp)”; (End Point: In vitro micronucleus, Test System: Human peripheral lymphocytes, Metabolic Activation: None) “active; positive, 20% purity (commercial product mosetam 20 sp)”; (End Point: In vivo micronucleus, Test System: Bone marrow polychromatic erythrocytes, Species: Mouse, Strain/Sex: CD-1/Female, Route: Gavage) “inactive; negative”; (End Point: In vivo micronucleus, Test System: Bone marrow polychromatic erythrocytes, Species: Mouse, Strain/Sex: CD-1/Male, Route: Gavage) “inactive; negative”; (Test System: Ames Salmonella typhimurium, Strain/Indicator: TA98, Metabolic Activation: None, Method: Preincubation) “inactive; negative”; (Test System: Ames Salmonella typhimurium, Strain/Indicator: TA98, Metabolic Activation: Rodent, Liver, S-9, Method: Preincubation) “inactive; negative”. For the same compound, the mutagenic call is “inactive; negative” (Test System: Ames Salmonella typhimurium, Strain/Indicator: TA100, Metabolic Activation: None, Method: Preincubation); “inactive; negative” (Test System: Ames Salmonella typhimurium, Strain/Indicator: TA100, Metabolic Activation: Rodent, Liver, S-9, Method: Preincubation); “inactive; negative” (Test System: Ames Salmonella typhimurium, Strain/Indicator: TA1535, Metabolic Activation: None, Method: Preincubation); “inactive; negative” (Test System: Ames Salmonella typhimurium, Strain/Indicator: TA1535, Metabolic Activation: Rodent, Liver, S-9, Method: Preincubation); “inactive; negative” (Test System: Ames Salmonella typhimurium, Strain/Indicator: TA1537, Metabolic Activation: None, Method: Preincubation); “inactive; negative” (Test System: Ames Salmonella typhimurium, Strain/Indicator: TA1537, Metabolic Activation: Rodent, Liver, S-9, Method: Preincubation). The mutagenic call is “inactive; negative” (Test System: E. coli, Strain/Indicator: WP2 uvrA, Metabolic Activation: None, Method: Preincubation); “inactive; negative” (Test System: E. coli, Strain/Indicator: WP2 uvrA, Metabolic Activation: Rodent, Liver, S-9, Method: Preincubation); “inactive; negative” (Test System: UDS F344 male rat hepatocytes, Strain/Indicator: THY INCORP, Method: Autoradiography).

With `C=C(C)c1ccc(C)c2ccc(CO)c-2c1`, the mutagenic call under setting [1] is “inactive; negative”, the mutagenic call under setting [2] was “active; positive”, the mutagenic call under setting [3] was “inactive; negative” and the mutagenic call under setting [4] is “active; positive”.

With `c1ccc2c(c1)-c1cccc3cccc-2c13`, the mutagenic call (Test System: AMES SALMONELLA TYPHIMURIUM, Strain/Indicator: TA97, Metabolic Activation: NONE, Method: STANDARD PLATE) was “inactive; negative”; the mutagenic call (Test System: AMES SALMONELLA TYPHIMURIUM, Strain/Indicator: TA97, Metabolic Activation: RAT, LIVER, S-9, AROCLOR 1254, Method: TAPED-PLATE) is “active; positive”; the mutagenic call (Test System: AMES SALMONELLA TYPHIMURIUM, Strain/Indicator: TA97, Metabolic Activation: RAT, LIVER, S-9, PCB, Method: STANDARD PLATE) is “active; positive”; the mutagenic call under setting [1] was “inactive; negative”; the mutagenic call (Test System: AMES SALMONELLA TYPHIMURIUM, Strain/Indicator: TA98, Metabolic Activation: RAT, LIVER, S-9, AROCLOR 1254 (4%), Method: STANDARD PLATE) was “inactive; negative”; the mutagenic call (Test System: AMES SALMONELLA TYPHIMURIUM, Strain/Indicator: TA98, Metabolic Activation: RAT, LIVER, S-9, AROCLOR 1254, Method: FLUCTUATION) is “active; positive”. Further, the mutagenic call by setting is: (Test System: AMES SALMONELLA TYPHIMURIUM, Strain/Indicator: TA98, Metabolic Activation: RAT, LIVER, S-9, AROCLOR 1254, Method: TAPED-PLATE) “active; positive”; (Test System: AMES SALMONELLA TYPHIMURIUM, Strain/Indicator: TA98, Metabolic Activation: RAT, LIVER, S-9, PCB, Method: STANDARD PLATE) “active; positive”; under setting [3], “inactive; negative”; (Test System: AMES SALMONELLA TYPHIMURIUM, Strain/Indicator: TA100, Metabolic Activation: RAT, LIVER, S-9, AROCLOR 1254, Method: FLUCTUATION) “active; positive”; (Test System: AMES SALMONELLA TYPHIMURIUM, Strain/Indicator: TA100, Metabolic Activation: RAT, LIVER, S-9, AROCLOR 1254, Method: TAPED-PLATE) “active; positive”; (Test System: AMES SALMONELLA TYPHIMURIUM, Strain/Indicator: TA100, Metabolic Activation: RAT, LIVER, S-9, PCB, Method: STANDARD PLATE) “active; positive”. In addition, the mutagenic call runs as follows: (Test System: AMES SALMONELLA TYPHIMURIUM, Strain/Indicator: TA102, Metabolic Activation: RAT, LIVER, S-9, AROCLOR 1254, Method: TAPED-PLATE) “inactive; negative”; (Test System: AMES SALMONELLA TYPHIMURIUM, Strain/Indicator: TA1535, Metabolic Activation: RAT, LIVER, S-9, AROCLOR 1254, Method: TAPED-PLATE) “inactive; negative”; (Test System: AMES SALMONELLA TYPHIMURIUM, Strain/Indicator: TA1537, Metabolic Activation: RAT, LIVER, S-9, AROCLOR 1254, Method: TAPED-PLATE) “active; positive”; (Test System: UDS RAT HEPATOCYTES, Strain/Indicator: THY INCORP, Metabolic Activation: NONE, Method: IN VIVO-IN VITRO) “inactive; negative”.

Consider `CC[C@H](c1ccc(O)cc1)[C@@H](CC)c1ccc(O)cc1`, for which the mutagenic call is, setting by setting: (End Point: IN VITRO CHROMOSOMAL ABERRATIONS, Test System: CHINESE HAMSTER CELL DON (22;XY), Metabolic Activation: NONE) “active; positive (ploidy changes)”; under setting [1], “inactive; negative”; (Test System: AMES SALMONELLA TYPHIMURIUM, Strain/Indicator: TA98, Metabolic Activation: RAT, LIVER, S-9, Method: STANDARD PLATE) “inactive; negative”; under setting [3], “inactive; negative”; (Test System: AMES SALMONELLA TYPHIMURIUM, Strain/Indicator: TA100, Metabolic Activation: RAT, LIVER, S-9, Method: STANDARD PLATE) “inactive; negative”; (Test System: AMES SALMONELLA TYPHIMURIUM, Strain/Indicator: TA1535, Metabolic Activation: NONE, Method: STANDARD PLATE) “inactive; negative; toxicity at 50 ug/plate”. Further, the mutagenic call reads like this: (Test System: AMES SALMONELLA TYPHIMURIUM, Strain/Indicator: TA1535, Metabolic Activation: RAT, LIVER, S-9, Method: STANDARD PLATE) “inactive; negative; toxicity at 100 ug/plate”; (Test System: AMES SALMONELLA TYPHIMURIUM, Strain/Indicator: TA1537, Metabolic Activation: NONE, Method: STANDARD PLATE) “inactive; negative; toxicity at 100 ug/plate”; (Test System: AMES SALMONELLA TYPHIMURIUM, Strain/Indicator: TA1537, Metabolic Activation: RAT, LIVER, S-9, Method: STANDARD PLATE) “inactive; negative”; (Test System: AMES SALMONELLA TYPHIMURIUM, Strain/Indicator: TA1538, Metabolic Activation: NONE, Method: STANDARD PLATE) “inactive; negative”; (Test System: AMES SALMONELLA TYPHIMURIUM, Strain/Indicator: TA1538, Metabolic Activation: RAT, LIVER, S-9, Method: STANDARD PLATE) “inactive; negative; toxicity at 100 ug/plate”; (Test System: UDS RAT HEPATOCYTES, Strain/Indicator: THY INCORP (18-20 HR), Metabolic Activation: NONE, Method: LIQUID SCINTILLATION COUNTING) “inactive; negative”.

As to `C=Cc1ccc(N)cc1`, the mutagenic call runs as follows: (Test System: AMES SALMONELLA TYPHIMURIUM, Strain/Indicator: TA98, Metabolic Activation: HAMSTER, LIVER, S-9, AROCLOR 1254, Method: STANDARD PLATE) “active; positive”; under setting [1], “inactive; negative”; under setting [2], “inactive; negative”; (Test System: AMES SALMONELLA TYPHIMURIUM, Strain/Indicator: TA100, Metabolic Activation: HAMSTER, LIVER, S-9, AROCLOR 1254, Method: STANDARD PLATE) “active; positive”; under setting [3], “inactive; negative”; under setting [4], “inactive; negative”. For the same compound, the mutagenic call by setting is: (Test System: MOUSE LYMPHOMA, Strain/Indicator: L5178Y (TK+/TK-), Metabolic Activation: NONE, Method: SUSPENSION/PLATE) “inactive; positive. reevaluation of results: negative”; (Test System: MOUSE LYMPHOMA, Strain/Indicator: L5178Y (TK+/TK-), Metabolic Activation: RAT, LIVER, S-9, AROCLOR 1254, Method: SUSPENSION/PLATE) “inactive; positive. reevaluation of results: negative”.

For `Cc1cc(N)c(C)c2c1[nH]c1ccccc12`, the mutagenic call is, setting by setting: under setting [1], “inactive; negative”; (Test System: AMES SALMONELLA TYPHIMURIUM, Strain/Indicator: TA98, Metabolic Activation: RAT LIVER S-9, AROCLOR 1254, Method: STANDARD PLATE) “active; positive”; under setting [3], “inactive; negative”; (Test System: AMES SALMONELLA TYPHIMURIUM, Strain/Indicator: TA100, Metabolic Activation: RAT LIVER S-9, AROCLOR 1254, Method: STANDARD PLATE) “inactive; negative”.
